Test results as given in patent US12649750B2, “Macrocyclic compounds, compositions, and methods of using thereof” (Sionna Therapeutics Inc., priority 2022, dated 2026).

Experiments:
NBD1 = molecular target: T1, NBD1 (Homo sapiens, UniProt P13569); experiment: Aggregation analysis using differential static light scattering (DSLS), thermal stability of NBD1 (ΔTagg); type: binding; conditions: ΔTagg versus DMSO control, NBD1 0.2 mg/ml
T1 construct: Purified recombinant NBD1 was produced using previously described methods; made in house
Procedure, shortened: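 Differential static light scattering read from 25° C. to 70° C. every 0.5° C., ramp 1° C./min, on recombinant NBD1 (0.2 mg/ml; Tris/NaCl/MgCl2 buffer with 2 mM ATP, 2 mM DTT, pH 7.6, 1% glycerol) plus compound. Reported ΔTagg subtracts averaged DMSO Tagg from inflection-point Tagg; categories A ≤5, B >5-10, C >10-25° C.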

CFTR = molecular target: T2, CFTR (Homo sapiens, UniProt P13569, DEL508-508); experiment: TECC24 AUC fold over DMSO @10 μM, CFTR-mediated transepithelial chloride transport in CF-HBE cells; type: cell-based; conditions: test agent AUC divided by DMSO vehicle AUC, primary CF-HBE cells, ΔF508 homozygous donor, 48 hours incubation
T2 construct: Primary human bronchial epithelial cells from a ΔF508 homozygous CF donor; host or cells: primary human bronchial epithelial cells (CF-HBE), ΔF508 homozygous donor
Procedure, shortened: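 Value is ratio of test-agent to DMSO AUC of equivalent transepithelial Cl− current, integrated from forskolin (10 μM) stimulation to CFTR inhibitor-172 (20 μM) block, with benzamil 10 μM present. CF-HBE (ΔF508/ΔF508) cultures had 48 h compound exposure at 10 μM, 36.5° C before recording.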

T1 sequence (P13569 423-646 limits assumed): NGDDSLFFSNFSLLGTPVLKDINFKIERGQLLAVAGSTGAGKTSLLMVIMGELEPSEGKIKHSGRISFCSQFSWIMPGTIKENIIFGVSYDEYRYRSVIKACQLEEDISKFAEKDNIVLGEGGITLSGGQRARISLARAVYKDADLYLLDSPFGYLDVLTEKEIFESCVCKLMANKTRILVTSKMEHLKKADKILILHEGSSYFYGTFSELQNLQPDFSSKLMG
T2 sequence (P13569 with tags, fused parts or gaps DEL508-508): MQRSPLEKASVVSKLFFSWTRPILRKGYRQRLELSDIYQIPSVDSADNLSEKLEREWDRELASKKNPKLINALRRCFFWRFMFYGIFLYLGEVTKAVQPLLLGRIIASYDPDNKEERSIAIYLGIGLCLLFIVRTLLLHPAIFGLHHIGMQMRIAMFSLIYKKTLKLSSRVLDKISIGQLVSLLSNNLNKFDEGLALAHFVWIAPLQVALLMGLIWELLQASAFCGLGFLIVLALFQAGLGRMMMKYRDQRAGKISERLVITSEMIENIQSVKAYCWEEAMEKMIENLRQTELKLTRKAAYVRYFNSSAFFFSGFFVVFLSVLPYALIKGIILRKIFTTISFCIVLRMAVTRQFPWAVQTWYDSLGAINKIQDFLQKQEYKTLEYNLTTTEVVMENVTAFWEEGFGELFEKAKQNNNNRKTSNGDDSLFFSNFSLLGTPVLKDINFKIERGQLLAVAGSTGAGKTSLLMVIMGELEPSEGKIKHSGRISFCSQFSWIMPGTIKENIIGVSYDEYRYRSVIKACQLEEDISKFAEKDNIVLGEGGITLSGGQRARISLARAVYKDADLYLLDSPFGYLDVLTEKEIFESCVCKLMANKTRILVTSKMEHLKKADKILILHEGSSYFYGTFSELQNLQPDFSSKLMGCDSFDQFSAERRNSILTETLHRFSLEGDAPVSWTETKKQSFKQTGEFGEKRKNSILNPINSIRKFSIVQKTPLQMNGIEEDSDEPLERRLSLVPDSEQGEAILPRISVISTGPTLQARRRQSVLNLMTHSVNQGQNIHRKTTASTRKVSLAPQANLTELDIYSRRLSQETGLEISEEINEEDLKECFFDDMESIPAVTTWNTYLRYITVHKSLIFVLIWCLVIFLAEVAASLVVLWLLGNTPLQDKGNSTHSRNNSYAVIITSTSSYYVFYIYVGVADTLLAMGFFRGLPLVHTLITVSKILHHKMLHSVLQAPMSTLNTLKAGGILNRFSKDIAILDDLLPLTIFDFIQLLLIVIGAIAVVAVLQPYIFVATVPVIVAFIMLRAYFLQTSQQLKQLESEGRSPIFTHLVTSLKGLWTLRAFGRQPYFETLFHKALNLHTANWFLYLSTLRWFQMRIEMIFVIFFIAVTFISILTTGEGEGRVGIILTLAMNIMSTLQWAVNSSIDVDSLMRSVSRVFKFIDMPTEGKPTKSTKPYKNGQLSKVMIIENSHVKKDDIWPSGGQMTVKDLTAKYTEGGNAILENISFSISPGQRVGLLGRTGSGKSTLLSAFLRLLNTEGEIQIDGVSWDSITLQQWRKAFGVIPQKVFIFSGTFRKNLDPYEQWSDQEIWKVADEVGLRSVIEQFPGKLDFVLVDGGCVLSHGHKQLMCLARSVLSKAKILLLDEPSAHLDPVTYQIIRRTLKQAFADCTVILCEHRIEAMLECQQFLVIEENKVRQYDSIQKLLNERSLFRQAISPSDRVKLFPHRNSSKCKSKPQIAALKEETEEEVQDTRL

Structure (SMILES) | DSLS 3D (100 μM ΔT) (NBD1) | TECC (AUC, 10 μM) (CFTR)
CC(CC(=O)O)c1cccc(C2(C)CCOC(C)(C)CS(=O)(=O)CCc3c(c(F)cc4[nH]ccc34)Oc3ccc(F)c(c3)-c3nc2nn3C)c1 (single isomer, unassigned) [Compound 72A, 3-[3-(22,28-difluoro-3,6,10,10-tetramethyl-12,12-dioxo-9,24-dioxa-12lambda6-thia-3,4,19,30-tetrazapentacyclo-[23.3.1.12,5.015,23.016,20]triaconta-1(29),2(30),4,15,17,20,22,25,27-nonaen-6-yl)phenyl]-butanoic Acid] | C (a value greater than 10 °C and less than or equal to 25 °C is marked “C”) | A (a TECC value less than 12 is marked “A”)
CC(CC(=O)O)c1cccc(C2(C)CCOC(C)(C)CS(=O)(=O)CCc3c(c(F)cc4[nH]ccc34)Oc3ccc(F)c(c3)-c3nc2nn3C)c1 (single isomer, unassigned) [Compound 72B, 3-[3-(22,28-difluoro-3,6,10,10-tetramethyl-12,12-dioxo-9,24-dioxa-12lambda6-thia-3,4,19,30-tetrazapentacyclo-[23.3.1.12,5.015,23.016,20]triaconta-1(29),2(30),4,15,17,20,22,25,27-nonaen-6-yl)phenyl]-butanoic Acid] | A (an ΔTagg value less than or equal to 5 °C is marked “A”) | A (a TECC value less than 12 is marked “A”)
Cn1nc2nc1-c1cc(ccc1F)Oc1c(F)cc3[nH]ccc3c1CCS(=O)(=O)CC(C)(C)OCCC2(C)c1cccc(CCC(=O)O)c1 (single isomer, unassigned) [Compound 73A, 3-[3-(22,28-difluoro-3,6,10,10-tetramethyl-12,12-dioxo-9,24-dioxa-12lambda6-thia-3,4,19,30-tetrazapentacyclo-[23.3.1.12,5.015,23.016,20]triaconta-1(29),2(30),4,15,17,20,22,25,27-nonaen-6-yl)phenyl]-propanoic Acid] | C (a value greater than 10 °C and less than or equal to 25 °C is marked “C”) | A (a TECC value less than 12 is marked “A”)
Cn1nc2nc1-c1cc(ccc1F)Oc1c(F)cc3[nH]ccc3c1CCS(=O)(=O)CC(C)(C)OCCC2(C)c1cccc(CCC(=O)O)c1 (single isomer, unassigned) [Compound 73B, 3-[3-(22,28-difluoro-3,6,10,10-tetramethyl-12,12-dioxo-9,24-dioxa-12lambda6-thia-3,4,19,30-tetrazapentacyclo-[23.3.1.12,5.015,23.016,20]triaconta-1(29),2(30),4,15,17,20,22,25,27-nonaen-6-yl)phenyl]-propanoic Acid] | A (an ΔTagg value less than or equal to 5 °C is marked “A”) | B (a value between 12-20 is marked “B”)
CC(CC(=O)O)c1cccc(C2(C)CCCC(C)(C)CS(=O)(=O)CCc3c(c(F)cc4[nH]ccc34)Oc3ccc(F)c(c3)-c3nc2nn3C)c1 (single isomer, unassigned) [Compound 79A, 3-[3-(22,28-difluoro-3,6,10,10-tetramethyl-12,12-dioxo-24-oxa-12lambda6-thia-3,4,19,30-tetrazapentacyclo[23.3.1.12,5.015,23.016,20]triaconta-1(29),2(30),4,15,17,20,22,25,27-nonaen-6-yl)phenyl]butanoic Acid] | C (a value greater than 10 °C and less than or equal to 25 °C is marked “C”) | C (a value between 20 and 80 is marked “C”)
CC(CC(=O)O)c1cccc(C2(C)CCCC(C)(C)CS(=O)(=O)CCc3c(c(F)cc4[nH]ccc34)Oc3ccc(F)c(c3)-c3nc2nn3C)c1 (single isomer, unassigned) [Compound 79B, 3-[3-(22,28-difluoro-3,6,10,10-tetramethyl-12,12-dioxo-24-oxa-12lambda6-thia-3,4,19,30-tetrazapentacyclo[23.3.1.12,5.015,23.016,20]triaconta-1(29),2(30),4,15,17,20,22,25,27-nonaen-6-yl)phenyl]butanoic Acid] | B (a value above 5 °C and less than or equal to 10 °C is marked “B”) | A (a TECC value less than 12 is marked “A”)
O=C(O)CCc1cccc(C2NC(=O)CCCS(=O)(=O)CCc3c(c(F)cc4[nH]ccc34)Oc3ccc(F)c(c3)-c3ncc2[nH]3)c1 (single isomer, unassigned) [Compound 80, 3-[3-[22,28-difluoro-8,12,12-trioxo-24-oxa-12lambda6-thia-3,7,19,30-tetrazapentacyclo[23.3.1.12,5.015,23.016,20]triaconta-1(29),2,4,15,17,20,22,25,27-nonaen-6-yl]phenyl]propanoic acid] | B (a value above 5 °C and less than or equal to 10 °C is marked “B”) | A (a TECC value less than 12 is marked “A”)
O=C1CCCS(=O)(=O)CCc2c(c(F)cc3[nH]ccc23)Oc2ccc(F)c(c2)-c2ncc([nH]2)C(c2ccccc2)N1 (single isomer, unassigned) [Compound 81, 22,28-difluoro-12,12-dioxo-6-phenyl-24-oxa-12lambda6-thia-3,7,19,30 tetrazapentacyclo[23.3.1.12,5.015,23.016,20]triaconta-1(29),2,4,15,17,20,22,25,27-nonaen-8-one] | A (an ΔTagg value less than or equal to 5 °C is marked “A”) | A (a TECC value less than 12 is marked “A”)
O=C(O)CCc1cccc(C2NC(=O)CCCS(=O)(=O)CCc3c(c(F)cc4[nH]ccc34)Oc3ccc(F)c(c3)-c3ncc2[nH]3)c1 (single isomer, unassigned) [Compound 82, 3-[3-[22,28-difluoro-8,12,12-trioxo-24-oxa-12lambda6-thia-3,7,19,30-tetrazapentacyclo [23.3.1.12,5.015,23.016,20]-triaconta-1(29),2,4,15,17,20,22,25,27-nonaen-6-yl]phenyl]propanoic acid] | C (a value greater than 10 °C and less than or equal to 25 °C is marked “C”) | A (a TECC value less than 12 is marked “A”)
O=C1CCCS(=O)(=O)CCc2c(c(F)cc3[nH]ccc23)Oc2ccc(F)c(c2)-c2ncc([nH]2)C(c2ccccc2)N1 (single isomer, unassigned) [Compound 83, 22,28-difluoro-12,12-dioxo-6-phenyl-24-oxa-12lambda6-thia-3,7,19,30-tetrazapentacyclo [23.3.1.12,5.015,23.016,20]-triaconta-1(29),2,4,15,17,20,22,25,27-nonaen-8-one] | B (a value above 5 °C and less than or equal to 10 °C is marked “B”) | A (a TECC value less than 12 is marked “A”)
Cc1cn2nc1-c1cc(ccc1F)Oc1c(F)cc3[nH]ccc3c1CCS(=O)(=O)CC(C)(C)COCC2c1cccc(CCC(=O)O)c1 (single isomer, unassigned) [Compound 84B, 3-[3-(22,28-difluoro-3,10,10-trimethyl-12,12-dioxo-8,24-dioxa-12lambda6-thia-5,19,30-triazapentacyclo[23.3.1.12,5.015,23.016,20]triaconta-1(29),2(30),3,15,17,20,22,25,27-nonaen-6-yl)phenyl]propanoic acid] | A (an ΔTagg value less than or equal to 5 °C is marked “A”) | A (a TECC value less than 12 is marked “A”)
Cc1cnn2c1-c1cc(ccc1F)Oc1c(F)cc3[nH]ccc3c1CCS(=O)(=O)CC(C)(C)COCC2c1cccc(CCC(=O)O)c1 (single isomer, unassigned) [Compound 85, 3-[3-(23,29-difluoro-3,11,11-trimethyl-13,13-dioxo-9,25-dioxa-13λ6-thia-5,6,20-triazapentacyclo[24.3.1.02,6.016,24.017,21]triaconta-1(30),2,4,16,18,21,23,26,28-nonaen-7-yl)phenyl]propanoic Acid] | A (an ΔTagg value less than or equal to 5 °C is marked “A”) | A (a TECC value less than 12 is marked “A”)
CC1(C)CS(=O)(=O)CCc2c(c(F)cc3[nH]ccc23)Oc2ccc(F)c(c2)-c2ccn(n2)C(c2cccc(CCC(=O)O)c2)CCO1 (single isomer, unassigned) [Compound 87A, 3-[3-(22,28-difluoro-10,10-dimethyl-12,12-dioxo-9,24-dioxa-12lambda6-thia-5,19,30-triazapentacyclo[23.3.1.12,5.015,23.016,20]-triaconta-1(29),2(30),3,15,17,20,22,25,27-nonaen-6-yl)phenyl]propanoic acid] | B (a value above 5 °C and less than or equal to 10 °C is marked “B”) | A (a TECC value less than 12 is marked “A”)
